Experimental findings from patent US7491819B1 (priority 2004, dated 2009) are described below.

The term pIC50 denotes the IC50 on a negative log10 scale, so that one unit is a factor of ten.

pIC50: −log10 of the molar value.

For this assay, the target named is T1, HIV-integrase (Human immunodeficiency virus type 1 group M subtype B, UniProt P12497).
T1 construct: Recombinant integrase (0.26 ng) was incubated with the beads
The assay is described as follows: HIV-Integrase Inhibition Activity (SPA bead strand-transfer assay). In kind it is biochemical. Conditions: Table 1; read-out: Activity (HIV-integrase inhibition, IC50 class). Here is the method: HIV-Integrase Inhibition Activity. To evaluate in-vitro activity against HIV-integrase, 5 pmole of biotin labeled substrate DNA was bound to 100 μg of Streptavidin coated PVT SPA beads (Amersham Pharmacia Biotech). Recombinant integrase (0.26 ng) was incubated with the beads for 90 min at 37° C. Unbound enzyme was removed by washing the complex followed by addition of inhibitors and 0.1 fmol of P33 labeled target DNA. The reaction was stopped by adding EDTA to a final concentration of 10 mM. Samples were counted in TopCountNXT (Packard) and the CPM was used as a measure of integration. The reaction condition was as described in A. Engelman and R. Craigie, J. Virol 69, 5908-5911 (1995). The sequences of substrate and target DNA were described in Nucleic Acid Research 22, 1121-1122 (1994).
In the case of `Cc1ccc(CNC(=O)c2nc3n(c(=O)c2O)CCOC3(C)C)c(C)c1` [Example 37, Pyrimido[2,1-c][1,4]oxazine-2-carboxamide, N-[(2,4-dimethylphenyl)methyl]-4,6,7,9-tetrahydro-3-hydroxy-9,9-dimethyl-4-oxo-], the pIC50 was 7.00 to 8.70.

On to `Cc1cc(C)cc(CNC(=O)c2nc3n(c(=O)c2O)CCOC3(C)C)c1` [Example 38, Pyrimido[2,1-c][1,4]oxazine-2-carboxamide, N-[(3,5-dimethylphenyl)methyl]-4,6,7,9-tetrahydro-3-hydroxy-9,9-dimethyl-4-oxo-], for which the pIC50 was 7.00 to 8.70.

For the molecule `Cc1cc(F)ccc1CNC(=O)c1nc2n(c(=O)c1O)CCOC2(C)C` [Example 39, Pyrimido[2,1-c][1,4]oxazine-2-carboxamide, N-[(4-fluoro-2-methylphenyl)methyl]-4,6,7,9-tetrahydro-3-hydroxy-9,9-dimethyl-4-oxo-], the pIC50 is 7.00 to 8.70.

As to `CC1(C)OCCn2c1nc(C(=O)NCc1ccc(F)c3ccccc13)c(O)c2=O` [Example 40, Pyrimido[2,1-c][1,4]oxazine-2-carboxamide, N-[(4-fluoro-1-naphthalenyl)methyl]-4,6,7,9-tetrahydro-3-hydroxy-9,9-dimethyl-4-oxo-], the pIC50 is 7.00 to 8.70.

Regarding `COc1cc(F)ccc1CNC(=O)c1nc2n(c(=O)c1O)CCOC2(C)C` [Example 41, Pyrimido[2,1-c][1,4]oxazine-2-carboxamide, N-[(4-fluoro-2-methoxyphenyl)methyl]-4,6,7,9-tetrahydro-3-hydroxy-9,9-dimethyl-4-oxo-], the negative-log IC50 (pIC50) was 7.00 to 8.70.

For the molecule `CCC1(CC)OCCn2c1nc(C(=O)NCc1ccc(F)cc1)c(O)c2=O` [Example 42, Pyrimido[2,1-c][1,4]oxazine-2-carboxamide, 9,9-diethyl-N-[(4-fluorophenyl)methyl]-4,6,7,9-tetrahydro-3-hydroxy-4-oxo-], the pIC50 was 7.00 to 8.70.

As to `CCC1(CC)OCCn2c1nc(C(=O)NCc1ccc(F)c(C)c1)c(O)c2=O` [Example 43], the pIC50 is 7.00 to 8.70.

Regarding `CC1(C)OCCCn2c1nc(C(=O)NCc1ccc(F)cc1)c(O)c2=O` [Example 44, 6H-Pyrimido[2,1-c][1,4]oxazepine-2-carboxamide, N-[(4-fluorophenyl)methyl]-4,7,8,10-tetrahydro-3-hydroxy-10,10-dimethyl-4-oxo-], the pIC50 was 7.00 to 8.70.

Take `Cc1cc(CNC(=O)c2nc3n(c(=O)c2O)CCCOC3(C)C)ccc1F` [Example 45, 6H-Pyrimido[2,1-c][1,4]oxazepine-2-carboxamide, N-[(4-fluoro-3-methylphenyl)methyl]-4,7,8,10-tetrahydro-3-hydroxy-10,10-dimethyl-4-oxo-]: the negative-log IC50 (pIC50) is 7.00 to 8.70.

Regarding `CC1(C)OCCn2c1nc(C(=O)NCc1ccc(F)cc1OCC(=O)N1CCOCC1)c(O)c2=O` [Example 46, Pyrimido[2,1-c][1,4]oxazine-2-carboxamide, N-[[4-fluoro-2-[2-(4-morpholinyl)-2-oxoethoxy]phenyl]methyl]-4,6,7,9-tetrahydro-3-hydroxy-9,9-dimethyl-4-oxo-], the pIC50 is 7.00 to 8.70.

For `COC(=O)c1cc(F)ccc1CNC(=O)c1nc2n(c(=O)c1O)CCOC2(C)C` [Example 47, Benzoic acid, 5-fluoro-2-[[[(4,6,7,9-tetrahydro-3-hydroxy-9,9-dimethyl-4-oxopyrimido[2,1-c][1,4]oxazin-2-yl)carbonyl]amino]methyl]-, methyl ester], the pIC50 is 7.00 to 8.70.

As to `CC1(C)OCCn2c1nc(C(=O)NCc1ccc(F)cc1C(=O)O)c(O)c2=O` [Example 48, Benzoic acid, 5-fluoro-2-[[[(4,6,7,9-tetrahydro-3-hydroxy-9,9-dimethyl-4-oxopyrimido[2,1-c][1,4]oxazin-2-yl)carbonyl]amino]methyl]-], the negative logarithm of the IC50 (pIC50) was 7.00 to 8.70.

Take `CNC(=O)c1cc(F)ccc1CNC(=O)c1nc2n(c(=O)c1O)CCOC2(C)C` [Example 49, Pyrimido[2,1-c][1,4]oxazine-2-carboxamide, N-[[4-fluoro-2-[(methylamino)carbonyl]phenyl]methyl]-4,6,7,9-tetrahydro-3-hydroxy-9,9-dimethyl-4-oxo-]: the pIC50 is 7.00 to 8.70.

Consider `CC1(C)OCCn2c1nc(C(=O)NCc1ccc(F)cc1C(=O)NC1CC1)c(O)c2=O` [Example 50, Pyrimido[2,1-c][1,4]oxazine-2-carboxamide, N-[[2-[(cyclopropylamino)carbonyl]-4-fluorophenyl]methyl]-4,6,7,9-tetrahydro-3-hydroxy-9,9-dimethyl-4-oxo-], for which the pIC50 was 7.00 to 8.70.

On to `CC1(C)OCCn2c1nc(C(=O)NCc1ccc(F)cc1C(=O)NCCO)c(O)c2=O` [Example 51, Pyrimido[2,1-c][1,4]oxazine-2-carboxamide, N-[[4-fluoro-2-[[(2-hydroxyethyl)amino]carbonyl]phenyl]methyl]-4,6,7,9-tetrahydro-3-hydroxy-9,9-dimethyl-4-oxo-], for which the negative-log IC50 (pIC50) was 7.00 to 8.70.

For the molecule `CC1(C)OCCn2c1nc(C(=O)NCc1ccc(F)cc1C(=O)N1CCOCC1)c(O)c2=O` [Example 52, Pyrimido[2,1-c][1,4]oxazine-2-carboxamide, N-[[4-fluoro-2-(4-morpholinylcarbonyl)phenyl]methyl]-4,6,7,9-tetrahydro-3-hydroxy-9,9-dimethyl-4-oxo-], the negative logarithm of the IC50 (pIC50) is 7.00 to 8.70.

As to `CC1(C)OCCn2c1nc(C(=O)NCc1ccc(F)cc1-n1ccnc1)c(O)c2=O` [Example 53, Pyrimido[2,1-c][1,4]oxazine-2-carboxamide, N-[[4-fluoro-2-(1H-imidazol-1-yl)phenyl]methyl]-4,6,7,9-tetrahydro-3-hydroxy-9,9-dimethyl-4-oxo-], the pIC50 is 7.00 to 8.70.

With `CC1(C)OCCn2c1nc(C(=O)NCc1cc(F)ccc1-n1cncn1)c(O)c2=O` [Example 54, Pyrimido[2,1-c][1,4]oxazine-2-carboxamide, N-[[5-fluoro-2-(1H-1,2,4-triazol-1-yl)phenyl]methyl]-4,6,7,9-tetrahydro-3-hydroxy-9,9-dimethyl-4-oxo-e], the pIC50 was 7.00 to 8.70.

On to `CC1(C)OCCn2c1nc(C(=O)NCc1cccc(F)c1N1CCCCS1(=O)=O)c(O)c2=O` [Example 55, Pyrimido[2,1-c][1,4]oxazine-2-carboxamide, N-[[3-fluoro-2-(tetrahydro-1,1-dioxido-2H-1,2-thiazin-2-yl)phenyl]methyl]-4,6,7,9-tetrahydro-3-hydroxy-9,9-dimethyl-4-oxo-], for which the pIC50 is 7.00 to 8.70.

Consider `CC1(C)OCCn2c1nc(C(=O)NCc1cccc(F)c1-n1cncn1)c(O)c2=O` [Example 56, Pyrimido[2,1-c][1,4]oxazine-2-carboxamide, N-[[3-fluoro-2-(1H-1,2,4-triazol-1-yl)phenyl]methyl]-4,6,7,9-tetrahydro-3-hydroxy-9,9-dimethyl-4-oxo-], for which the pIC50 was 7.00 to 8.70.

`CC1(C)OCCn2c1nc(C(=O)NCc1ccc(F)cc1-n1nccn1)c(O)c2=O` [Example 57, Pyrimido[2,1-c][1,4]oxazine-2-carboxamide, N-[[4-fluoro-2-(2H-1,2,3-triazol-2-yl)phenyl]methyl]-4,6,7,9-tetrahydro-3-hydroxy-9,9-dimethyl-4-oxo-]: the negative logarithm of the IC50 (pIC50) is 7.00 to 8.70.

For the molecule `CC1(C)OCCn2c1nc(C(=O)NCc1ccc(-n3nccn3)cc1F)c(O)c2=O` [Example 58, Pyrimido[2,1-c][1,4]oxazine-2-carboxamide, N-[[2-fluoro-4-(2H-1,2,3-triazol-2-yl)phenyl]methyl]-4,6,7,9-tetrahydro-3-hydroxy-9,9-dimethyl-4-oxo-], the pIC50 is 7.00 to 8.70.

In the case of `CC1(C)OCCn2c1nc(C(=O)NCc1ccc(F)cc1Br)c(O)c2=O` [Example 59, Pyrimido[2,1-c][1,4]oxazine-2-carboxamide, N-[(2-bromo-4-fluorophenyl)methyl]-4,6,7,9-tetrahydro-3-hydroxy-9,9-dimethyl-4-oxo-], the pIC50 was 7.00 to 8.70.

As to `COC(=O)c1ncn(-c2cc(F)ccc2CNC(=O)c2nc3n(c(=O)c2O)CCOC3(C)C)n1` [Example 60, 1H-1,2,4-Triazole-3-carboxylic acid, 1-[5-fluoro-2-[[[(4,6,7,9-tetrahydro-3-hydroxy-9,9-dimethyl-4-oxopyrimido[2,1-c][1,4]oxazin-2-yl)carbonyl]amino]methyl]phenyl], methyl este], the pIC50 is 7.00 to 8.70.

For the molecule `CC1(C)OCCn2c1nc(C(=O)NCc1ccc(F)cc1-n1cnc(C(=O)O)n1)c(O)c2=O` [Example 61, 1H-1,2,4-Triazole-3-carboxylic acid, 1-[5-fluoro-2-[[[(4,6,7,9-tetrahydro-3-hydroxy-9,9-dimethyl-4-oxopyrimido[2,1-c][1,4]oxazin-2-yl)carbonyl]amino]methyl]phenyl]-], the negative-log IC50 (pIC50) is 7.00 to 8.70.

`CC1(C)OCCn2c1nc(C(=O)NCc1ccc(F)cc1-n1cnc(C(=O)N3CCOCC3)n1)c(O)c2=O` [Example 62, Pyrimido[2,1-c][1,4]oxazine-2-carboxamide, N-[[4-fluoro-2-[3-(4-morpholinylcarbonyl)-1H-1,2,4-triazol-1-yl]phenyl]methyl]-4,6,7,9-tetrahydro-3-hydroxy-9,9-dimethyl-4-oxo-]: the pIC50 was 7.00 to 8.70.

With `CN(C)C(=O)c1ncn(-c2cc(F)ccc2CNC(=O)c2nc3n(c(=O)c2O)CCOC3(C)C)n1` [Example 63, Pyrimido[2,1-c][1,4]oxazine-2-carboxamide, N-[[2-[3-[(dimethylamino)carbonyl]-1H-1,2,4-triazol-1-yl]-4-fluorophenyl]methyl]-4,6,7,9-tetrahydro-3-hydroxy-9,9-dimethyl-4-oxo-], the pIC50 was 7.00 to 8.70.
